# Source: patent US9511073B2, “Aromatic amides and uses thereof” (TAXIS Pharmaceuticals, Inc., priority 2011, dated 2016)
# Tested on: Staphylococcus aureus (Isolate ID ATCC 29213)
# Experiment: Bacterial assay: MIC by broth microdilution or agar dilution (CLSI), S. aureus ATCC 29213
# Format: cell-based
# Settings: Staphylococcus aureus, ATCC29213, read-out: S. aureus MIC (μg/mL) Activity Range, S. aureus (ATCC29213)
# Procedure, shortened: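 Activity is binned (A ≤0.25 μg/mL; B >0.25–1.0; C >1.0–16; D >16 μg/mL) from MICs determined per CLSI by broth microdilution or agar dilution, on S. aureus ATCC 29213 plus an FtsZ-G196A mutant strain.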
row,SMILES,MIC [µg/mL]
1,"NC(=O)c1c(F)ccc(OC(CCC(=O)O)c2nc(-c3ccc(C(F)(F)F)cc3)c(Br)o2)c1F (stereo not drawn) [Compound 91, 4-(5-bromo-4-(4-(trifluoromethyl)phenyl)oxazol-2-yl)-4-(3-carbamoyl-2,4-difluorophenoxy)butanoic acid]",1 to 16
2,"Cc1cc(CNC(=O)OCC(Oc2ccc(F)c(C(N)=O)c2F)c2nc(-c3ccc(C(F)(F)F)cc3)c(Br)o2)ccn1 (stereo not drawn) [Compound 200, 2-(5-bromo-4-(4-(trifluoromethyl)phenyl)oxazol-2-yl)-2-(3-carbamoyl-2,4-difluorophenoxy)ethyl ((2-methylpyridin-4-yl)methyl)carbamate]",0.25 to 1
3,"CCNC(=O)NCC(Oc1ccc(F)c(C(N)=O)c1F)c1nc(-c2ccc(C(F)(F)F)cc2)co1 (stereo not drawn) [Compound 286, 3-(2-(3-ethylureido)-1-(4-(4-(trifluoromethyl)phenyl)oxazol-2-yl)ethoxy)-2,6-difluorobenzamide]",> 16
4,"NC(=O)c1c(F)ccc(O[C@H](CO)c2nc(-c3ccc(OC(F)F)cc3)c(Br)o2)c1F [Compound 273B, (R)-3-(1-(5-bromo-4-(4-(difluoromethoxy)phenyl)oxazol-2-yl)-2-hydroxyethoxy)-2,6-difluorobenzamide]",< 0.25
5,"NC(=O)OCC(Oc1ccc(F)c(C(N)=O)c1F)c1nc(-c2ccc(C(F)(F)F)cc2)c(Cl)o1 (stereo not drawn) [Compound 52, 2-(3-carbamoyl-2,4-difluorophenoxy)-2-(5-chloro-4-(4-(trifluoromethyl)phenyl)oxazol-2-yl)ethyl carbamate]",0.25 to 1
6,"NC(=O)c1c(F)ccc(OC(CO)c2nc(-c3ccc(C(F)(F)F)cc3)c(Cl)o2)c1F (stereo not drawn) [Compound 44, 3-(1-(5-chloro-4-(4-(trifluoromethyl)phenyl)oxazol-2-yl)-2-hydroxyethoxy)-2,6-difluorobenzamide]",0.25 to 1
7,"NC(=O)c1c(F)ccc(OC(CC(=O)O)c2nc(-c3ccc(C(F)(F)F)cc3)c(Br)o2)c1F (stereo not drawn) [Compound 77, 3-(5-bromo-4-(4-(trifluoromethyl)phenyl)oxazol-2-yl)-3-(3-carbamoyl-2,4-difluorophenoxy)propanoic acid]",> 16
8,"CCOC(=O)C(CC(Oc1ccc(F)c(C(N)=O)c1F)c1nc(-c2ccc(C(F)(F)F)cc2)c(Br)o1)C(=O)OCC (stereo not drawn) [Compound 119, diethyl 2-(2-(5-bromo-4-(4-(trifluoromethyl)phenyl)oxazol-2-yl)-2-(3-carbamoyl-2,4-difluorophenoxy)ethyl)malonate]",> 16
9,"COc1ccc(CCc2csc(C(CO)Oc3ccc(F)c(C(N)=O)c3F)n2)cc1 (stereo not drawn) [Compound 262, 2,6-difluoro-3-(2-hydroxy-1-(4-(4-methoxyphenethyl)thiazol-2-yl)ethoxy)benzamide]",1 to 16
10,"NC(=O)c1c(F)ccc(OC(CNC(=O)c2cccnc2)c2nc(-c3ccc(C(F)(F)F)cc3)co2)c1F (stereo not drawn) [Compound 293, N-(2-(3-carbamoyl-2,4-difluorophenoxy)-2-(4-(4-(trifluoromethyl)phenyl)oxazol-2-yl)ethyl)nicotinamide]",> 16
11,"CCOC(=O)C(Oc1ccc(F)c(C(N)=O)c1F)c1csc(-c2ccc(C(F)(F)F)cc2)n1 (stereo not drawn) [Compound 125, ethyl 2-(3-carbamoyl-2,4-difluorophenoxy)-2-(2-(4-(trifluoromethyl)phenyl)thiazol-4-yl)acetate]",0.25 to 1
12,C[C@@H](Oc1cccc(C(N)=O)c1F)c1nc(-c2ccc(C(F)(F)F)cc2)c(Br)o1 [Compound 299],1 to 16
13,"Cc1nnc(C(Oc2ccc(F)c(C(N)=O)c2F)c2nc(-c3ccc(C(F)(F)F)cc3)co2)o1 (stereo not drawn) [Compound 218, 2,6-difluoro-3-((5-methyl-1,3,4-oxadiazol-2-yl)(4-(4-(trifluoromethyl)phenyl)oxazol-2-yl)methoxy)benzamide]",> 16
14,"NC(=O)c1c(F)ccc(OC(CO)c2csc(-c3ccc(C(F)(F)F)cc3)n2)c1F (stereo not drawn) [Compound 126, 2,6-difluoro-3-(2-hydroxy-1-(2-(4-(trifluoromethyl)phenyl)thiazol-4-yl)ethoxy)benzamide]",1 to 16
15,"NC(=O)c1c(F)ccc(OC(COC(=O)Nc2cccnc2)c2nc(-c3ccc(C(F)(F)F)cc3)c(Br)o2)c1F (stereo not drawn) [Compound 170, 2-(5-bromo-4-(4-(trifluoromethyl)phenyl)oxazol-2-yl)-2-(3-carbamoyl-2,4-difluorophenoxy)ethyl pyridin-3-ylcarbamate]",0.25 to 1
16,"CC(=O)NCC(Oc1ccc(F)c(C(N)=O)c1F)c1nc(-c2ccc(C(F)(F)F)cc2)co1 (stereo not drawn) [Compound 282, 3-(2-acetamido-1-(4-(4-(trifluoromethyl)phenyl)oxazol-2-yl)ethoxy)-2,6-difluorobenzamide]",> 16
17,"Cc1noc(CCNC(=O)OCC(Oc2ccc(F)c(C(N)=O)c2F)c2nc(-c3ccc(C(F)(F)F)cc3)c(Br)o2)n1 (stereo not drawn) [Compound 171, 2-(5-bromo-4-(4-(trifluoromethyl)phenyl)oxazol-2-yl)-2-(3-carbamoyl-2,4-difluorophenoxy)ethyl (2-(3-methyl-1,2,4-oxadiazol-5-yl)ethyl)carbamate]",0.25 to 1

row,SMILES,MIC [µg/mL]
1,"N#Cc1ccc(-c2nc([C@@H](CO)Oc3ccc(F)c(C(N)=O)c3F)oc2Br)cn1 [Compound 249B, (R)-3-(1-(5-bromo-4-(6-cyanopyridin-3-yl)oxazol-2-yl)-2-hydroxyethoxy)-2,6-difluorobenzamide]",1 to 16
2,"NC(=O)c1c(F)ccc(OC(CO)c2nc(-c3ccc(Cl)cc3F)c(Br)o2)c1F (stereo not drawn) [Compound 235, 3-(1-(5-bromo-4-(4-chloro-2-fluorophenyl)oxazol-2-yl)-2-hydroxyethoxy)-2,6-difluorobenzamide]",< 0.25
3,"CSc1ccc(OC(CO)c2nc(-c3ccc(C(F)(F)F)cc3)c(SC)o2)c(F)c1C(N)=O (stereo not drawn) [Compound 270, 2-fluoro-3-(2-hydroxy-1-(5-(methylthio)-4-(4-(trifluoromethyl)phenyl)oxazol-2-yl)ethoxy)-6-(methylthio)benzamide]",> 16
4,"NC(=O)c1c(F)ccc(OC(COC(=O)NCCc2c[nH]cn2)c2nc(-c3ccc(C(F)(F)F)cc3)c(Br)o2)c1F (stereo not drawn) [Compound 162, 2-(5-bromo-4-(4-(trifluoromethyl)phenyl)oxazol-2-yl)-2-(3-carbamoyl-2,4-difluorophenoxy)ethyl (2-(1H-imidazol-4-yl)ethyl)carbamate]",1 to 16
5,"Cc1nnc(CC(Oc2ccc(F)c(C(N)=O)c2F)c2nc(-c3ccc(C(F)(F)F)cc3)c(Br)o2)o1 (stereo not drawn) [Compound 120, 3-(1-(5-bromo-4-(4-(trifluoromethyl)phenyl)oxazol-2-yl)-2-(5-methyl-1,3,4-oxadiazol-2-yl)ethoxy)-2,6-difluorobenzamide]",1 to 16
6,"CCCCc1oc(C(CO)Oc2ccc(F)c(C(N)=O)c2F)nc1-c1ccc(C(F)(F)F)cc1 (stereo not drawn) [Compound 277, 3-(1-(5-butyl-4-(4-(trifluoromethyl)phenyl)oxazol-2-yl)-2-hydroxyethoxy)-2,6-difluorobenzamide]",1 to 16
7,"CN(C)C(=O)C(Oc1ccc(F)c(C(N)=O)c1F)c1nc(-c2ccc(Cl)cc2)cs1 (stereo not drawn) [Compound 31, 3-(1-(4-(4-chlorophenyl)thiazol-2-yl)-2-(dimethylamino)-2-oxoethoxy)-2,6-difluorobenzamide]",1 to 16
8,"NC(=O)c1c(F)ccc(OC(COC(=O)NCCN2CCCC2)c2nc(-c3ccc(C(F)(F)F)cc3)c(Br)o2)c1F (stereo not drawn) [Compound 161, 2-(5-bromo-4-(4-(trifluoromethyl)phenyl)oxazol-2-yl)-2-(3-carbamoyl-2,4-difluorophenoxy)ethyl (2-(pyrrolidin-1-yl)ethyl)carbamate]",1 to 16
9,"NC(=O)c1c(F)ccc(OC(COC2CCCCO2)c2nc(-c3ccc(C(F)(F)F)cc3)c(Br)o2)c1F (stereo not drawn) [Compound 105, 3-(1-(5-bromo-4-(4-(trifluoromethyl)phenyl)oxazol-2-yl)-2-((tetrahydro-2H-pyran-2-yl)oxy)ethoxy)-2,6-difluorobenzamide]",0.25 to 1
10,"NC(=O)CC(Oc1ccc(F)c(C(N)=O)c1F)c1nc(-c2ccc(C(F)(F)F)cc2)c(Br)o1 (stereo not drawn) [Compound 96, 3-(3-amino-1-(5-bromo-4-(4-(trifluoromethyl)phenyl)oxazol-2-yl)-3-oxopropoxy)-2,6-difluorobenzamide]",1 to 16
11,"CC(=O)OCC(Oc1ccc(F)c(C(N)=O)c1F)c1nc(-c2ccc(C(F)(F)F)cc2)c(Cl)o1 (stereo not drawn) [Compound 42, 2-(3-carbamoyl-2,4-difluorophenoxy)-2-(5-chloro-4-(4-(trifluoromethyl)phenyl)oxazol-2-yl)ethyl acetate]",0.25 to 1
12,"NC(=O)c1c(F)ccc(OC(COC(=O)NCc2cc[n+]([O-])cc2)c2nc(-c3ccc(C(F)(F)F)cc3)c(Br)o2)c1F (stereo not drawn) [Compound 175, 4-((((2-(5-bromo-4-(4-(trifluoromethyl)phenyl)oxazol-2-yl)-2-(3-carbamoyl-2,4-difluorophenoxy)ethoxy)carbonyl)amino)methyl)pyridine 1-oxide]",1 to 16
13,"CN(Cc1ccncn1)C(=O)OCC(Oc1ccc(F)c(C(N)=O)c1F)c1nc(-c2ccc(C(F)(F)F)cc2)c(Br)o1 (stereo not drawn) [Compound 197, 2-(5-bromo-4-(4-(trifluoromethyl)phenyl)oxazol-2-yl)-2-(3-carbamoyl-2,4-difluorophenoxy)ethyl methyl(pyrimidin-4-ylmethyl)carbamate]",0.25 to 1
14,"CN(C)C(=O)CC(Oc1ccc(F)c(C(N)=O)c1F)c1nc(-c2ccc(C(F)(F)F)cc2)c(Br)o1 (stereo not drawn) [Compound 88, 3-(1-(5-bromo-4-(4-(trifluoromethyl)phenyl)oxazol-2-yl)-3-(dimethylamino)-3-oxopropoxy)-2,6-difluorobenzamide]",1 to 16
15,"NC(=O)c1c(F)ccc(OC(CO)c2nc(-c3ccc(C(F)(F)F)cc3)c(C3CC3)o2)c1F (stereo not drawn) [Compound 269, 3-(1-(5-cyclopropyl-4-(4-(trifluoromethyl)phenyl)oxazol-2-yl)-2-hydroxyethoxy)-2,6-difluorobenzamide]",1 to 16
16,"CNCC(=O)OCC(Oc1ccc(F)c(C(N)=O)c1F)c1nc(-c2ccc(C(F)(F)F)cc2)c(Br)o1 (stereo not drawn) [Compound 62, 2-(5-bromo-4-(4-(trifluoromethyl)phenyl)oxazol-2-yl)-2-(3-carbamoyl-2,4-difluorophenoxy)ethyl 2-(methylamino)acetate]",0.25 to 1
